From the NIST ThermoML archive (doi:10.1016/j.jct.2008.03.013)
Values joined by “and” are separate entries in the source; they are usually repeats but may differ in a detail not shown here. Equal values may be shown once.

Legend:
[1] = xn = mol fraction of the nth substance listed; conditions: 100 kPa, Liquid
[2] = refractive index (Na D-line) (dimensionless); xn = mol fraction of the nth substance listed; conditions: 298.15 K, 100 kPa, Liquid, Standard Abbe refractometry
[3] = 100 kPa, Liquid
[4] = refractive index (Na D-line) (dimensionless); conditions: 298.15 K; 101.33 kPa; Liquid; Standard Abbe refractometry

CCCCn1cc[n+](C)c1.COS(=O)(=O)[O-] [1-butyl-3-methylimidazolium methyl sulfate] + O
[1]
Conditions | mass density, 298.15 K [kg/m3] | mass density, 313.15 K [kg/m3] | mass density, 328.15 K [kg/m3] | viscosity, 298.15 K [mPa·s] | viscosity, 313.15 K [mPa·s] | viscosity, 328.15 K [mPa·s]
x2 = 0 | 1213.43 | 1203.48 | 1193.59 | 182.3 | 84.8 | 45.35
x2 = 0.0325 | 1212.91 | 1202.96 | 1193.03 | 177 | 82.8 | 44.8
x2 = 0.1703 | 1211.05 | 1201.02 | 1190.99 | 137 | 68.9 | 41.09
x2 = 0.2989 | 1208.33 | 1198.3 | 1188.25 | 95.4 | 51.5 | 33.85
x2 = 0.4104 | 1204.62 | 1194.57 | 1184.54 | 65.5 | 35.77 | 23.52
x2 = 0.4774 | 1201.72 | 1191.55 | 1181.33 | 50.2 | 27.55 | 18.25
x2 = 0.5886 | 1194.68 | 1184.43 | 1174.25 | 31.93 | 18.4 | 11.98
x2 = 0.6859 | 1185.23 | 1174.8 | 1164.26 | 20.28 | 12.03 | 7.862
x2 = 0.7856 | 1168.21 | 1157.61 | 1146.83 | 11.42 | 7.027 | 4.738
x2 = 0.8899 | 1130.52 | 1120.17 | 1109.5 | 5.071 | 3.296 | 2.306
x2 = 0.9466 | 1085.81 | 1076.83 | 1067.17 | 2.597 | 1.763 | 1.281

[2]
Conditions | refractive index
x2 = 0 | 1.47792
x2 = 0.0325 | 1.47746
x2 = 0.1703 | 1.47584
x2 = 0.2989 | 1.47341
x2 = 0.4104 | 1.47032
x2 = 0.4774 | 1.46814
x2 = 0.5886 | 1.463
x2 = 0.6859 | 1.45603
x2 = 0.7856 | 1.44395
x2 = 0.8899 | 1.41842
x2 = 0.9466 | 1.38937

CCO [ethanol]
[3]
Conditions | mass density [kg/m3] | viscosity [mPa·s]
298.15 K | 785.46 | 1.082
313.15 K | 772 | 0.827
328.15 K | 758.55 | 0.641

Conditions | refractive index
[4] | 1.36023

CCCCn1cc[n+](C)c1.COS(=O)(=O)[O-] [1-butyl-3-methylimidazolium methyl sulfate] + CCO
[1]
Conditions | mass density, 298.15 K [kg/m3] | mass density, 313.15 K [kg/m3] | mass density, 328.15 K [kg/m3] | viscosity, 298.15 K [mPa·s] | viscosity, 313.15 K [mPa·s] | viscosity, 328.15 K [mPa·s]
x2 = 0 | 1213.43 | 1203.48 | 1193.59 | 182.3 | 84.7 | 45.35
x2 = 0.0651 | 1205.77 | 1195.71 | 1185.73 | 156.7 | 74.9 | 40.76
x2 = 0.0922 | 1202.49 | 1192.4 | 1182.4 | 131.9 | 64.1 | 35.9
x2 = 0.2011 | 1187.41 | 1177.24 | 1167.12 | 88.6 | 46.28 | 27.16
x2 = 0.3091 | 1169.23 | 1158.88 | 1148.61 | 56.32 | 31.64 | 19.89
x2 = 0.402 | 1150.09 | 1139.56 | 1129.14 | 37.85 | 22.35 | 14.41
x2 = 0.491 | 1127.58 | 1117.04 | 1106.55 | 25.04 | 15.62 | 10.53
x2 = 0.5788 | 1100.78 | 1089.92 | 1079.14 | 16.22 | 10.58 | 7.263
x2 = 0.7142 | 1043.7 | 1032.43 | 1021.2 | 7.427 | 5.271 | 4.019
x2 = 0.807 | 989.09 | 977.5 | 965.92 | 4.349 | 3.197 | 2.503
x2 = 0.895 | 917.29 | 905.22 | 893.02 | 2.465 | 1.863 | 1.432
x2 = 0.9445 | 863.52 | 851.11 | 838.48 | 1.733 | 1.319 | 1.033

[2]
Conditions | refractive index
x2 = 0 | 1.47792
x2 = 0.0651 | 1.4759
x2 = 0.0922 | 1.475
x2 = 0.2011 | 1.4711
x2 = 0.3091 | 1.46633
x2 = 0.402 | 1.46114
x2 = 0.491 | 1.45512
x2 = 0.5788 | 1.4478
x2 = 0.7142 | 1.43243
x2 = 0.807 | 1.41714
x2 = 0.895 | 1.39734
x2 = 0.9445 | 1.38212

CCO [ethanol] + CCCCn1cc[n+](C)c1.COS(=O)(=O)[O-]
[1], x1 = 1
Conditions | mass density [kg/m3] | viscosity [mPa·s]
298.15 K | 785.46 | 1.082
313.15 K | 772 | 0.827
328.15 K | 758.55 | 0.641

Conditions | refractive index
[2], x1 = 1 | 1.36023

CCCCn1cc[n+](C)c1.COS(=O)(=O)[O-] [1-butyl-3-methylimidazolium methyl sulfate]
[3]
Conditions | mass density [kg/m3] | viscosity
298.15 K | 1213.43 | 182.3 mPa·s
313.15 K | 1203.48 | 84.8 mPa·s and 84.7 mPa·s
328.15 K | 1193.59 | 45.35 mPa·s

Conditions | refractive index
[4] | 1.47792
